Measured values: ChEMBL document CHEMBL1147697, “Synthesis and structure-activity relationship of a novel, achiral series of TNF-alpha converting enzyme inhibitors” (Bioorg Med Chem Lett, 2006)

Experiments:
[1] = Dissociation constant, pKa of the compound; assay type: physicochemical
[2] = Partition coefficient, logP of the compound; assay type: physicochemical; details: octanol/water
[3] = Half life in Beagle dog at 2 mg/kg, iv; assay type: ADME, organism-based, Canis lupus familiaris; parameters: dose 2 mg/kg, route intravenous; details: in vivo
[4] = Cmax in Sprague-Dawley rat at 30 mg/kg, po; assay type: ADME, organism-based; parameters: dose 30 mg/kg, route oral; details: in vivo
[5] = Oral bioavailability in Sprague-Dawley rat at 30 mg/kg, po; assay type: ADME, organism-based; details: in vivo
[6] = Volume of distribution in Sprague-Dawley rat at 2 mg/kg, iv; assay type: ADME, organism-based; parameters: dose 2 mg/kg, route intravenous; details: in vivo, read-out: Vdss
[7] = Cmax in Beagle dog at 10 mg/kg, po; assay type: ADME, organism-based, Canis lupus familiaris; parameters: dose 10 mg/kg, route oral; details: in vivo
[8] = Tmax in Sprague-Dawley rat at 30 mg/kg, po; assay type: ADME, organism-based; parameters: dose 30 mg/kg, route oral; details: in vivo
[9] = Stability in human liver S9 fraction after 30 mins; assay type: ADME, organism-based; details: read-out: Stability
[10] = Half life in Sprague-Dawley rat at 30 mg/kg, po; assay type: ADME, organism-based; parameters: dose 30 mg/kg, route oral; details: in vivo
[11] = Oral bioavailability in Beagle dog at 10 mg/kg, po; assay type: ADME, organism-based, Canis lupus familiaris; details: in vivo
[12] = Clearance in Beagle dog at 2 mg/kg, iv; assay type: ADME, organism-based, Canis lupus familiaris; parameters: dose 2 mg/kg, route intravenous; details: in vivo
[13] = AUC in Sprague-Dawley rat at 30 mg/kg, po; assay type: ADME, organism-based; parameters: dose 30 mg/kg, route oral; details: plasma
[14] = Volume of distribution in Beagle dog at 2 mg/kg, iv; assay type: ADME, organism-based, Canis lupus familiaris; parameters: dose 2 mg/kg, route intravenous; details: in vivo, read-out: Vdss
[15] = Clearance in Sprague-Dawley rat at 2 mg/kg, iv; assay type: ADME, organism-based; parameters: dose 2 mg/kg, route intravenous; details: in vivo
[16] = Half life in Sprague-Dawley rat at 2 mg/kg, iv; assay type: ADME, organism-based; parameters: dose 2 mg/kg, route intravenous; details: in vivo
[17] = Half life in Beagle dog at 10 mg/kg, po; assay type: ADME, organism-based, Canis lupus familiaris; parameters: dose 10 mg/kg, route oral; details: in vivo
[18] = AUC in Beagle dog at 2 mg/kg, iv; assay type: ADME, organism-based, Canis lupus familiaris; parameters: dose 2 mg/kg, route intravenous; details: plasma
[19] = Tmax in Beagle dog at 10 mg/kg, po; assay type: ADME, organism-based, Canis lupus familiaris; parameters: dose 10 mg/kg, route oral; details: in vivo
[20] = AUC in Beagle dog at 10 mg/kg, po; assay type: ADME, organism-based, Canis lupus familiaris; parameters: dose 10 mg/kg, route oral; details: plasma
[21] = Stability in chimp liver S9 fraction after 30 mins; assay type: ADME, Pan troglodytes; details: chimpanzee, read-out: Stability
[22] = AUC in Sprague-Dawley rat at 2 mg/kg, iv; assay type: ADME, organism-based; parameters: dose 2 mg/kg, route intravenous; details: plasma
[23] = Half life in Sprague-Dawley rat at 3.3 mg/kg, iv; assay type: ADME, organism-based; parameters: dose 3.3 mg/kg, route intravenous; details: in vivo
[24] = Half life in Sprague-Dawley rat at 6.7 mg/kg, po; assay type: ADME, organism-based; parameters: dose 6.7 mg/kg, route oral; details: in vivo
[25] = Stability in dog liver S9 fraction after 30 mins; assay type: ADME, organism-based, Canis lupus familiaris; details: read-out: Stability
[26] = Half life in Beagle dog at 0.5 mg/kg, iv; assay type: ADME, organism-based, Canis lupus familiaris; parameters: dose 0.5 mg/kg, route intravenous; details: in vivo
[27] = Half life in Beagle dog at 1 mg/kg, po; assay type: ADME, organism-based, Canis lupus familiaris; parameters: dose 1 mg/kg, route oral; details: in vivo
[28] = AUC in Beagle dog at 1 mg/kg, po; assay type: ADME, organism-based, Canis lupus familiaris; parameters: dose 1 mg/kg, route oral; details: plasma
[29] = Tmax in Sprague-Dawley rat at 6.7 mg/kg, po; assay type: ADME, organism-based; parameters: dose 6.7 mg/kg, route oral; details: in vivo
[30] = Stability in rat liver S9 fraction after 30 mins; assay type: ADME, organism-based; details: read-out: Stability
[31] = Cmax in Beagle dog at 1 mg/kg, po; assay type: ADME, organism-based, Canis lupus familiaris; parameters: dose 1 mg/kg, route oral; details: in vivo
[32] = Volume of distribution in Beagle dog at 0.5 mg/kg, iv; assay type: ADME, organism-based, Canis lupus familiaris; parameters: dose 0.5 mg/kg, route intravenous; details: in vivo, read-out: Vdss
Rattus norvegicus [33] = experiment: AUC in Sprague-Dawley rat at 3.3 mg/kg, iv; assay type: ADME, organism-based, Plasma; parameters: dose 3.3 mg/kg, route intravenous; details: in vivo
[34] = Tmax in Beagle dog at 1 mg/kg, po; assay type: ADME, organism-based, Canis lupus familiaris; parameters: dose 1 mg/kg, route oral; details: in vivo
Rattus norvegicus [35] = experiment: AUC in Sprague-Dawley rat at 6.7 mg/kg, po; assay type: ADME, organism-based, Plasma; parameters: dose 6.7 mg/kg, route oral; details: in vivo
[36] = Clearance in Sprague-Dawley rat at 3.3 mg/kg, iv; assay type: ADME, organism-based; parameters: dose 3.3 mg/kg, route intravenous; details: in vivo
Rattus norvegicus [37] = experiment: Oral bioavailability in Sprague-Dawley rat at 6.7 mg/kg, po; assay type: ADME, organism-based; details: in vivo
[38] = Clearance in Beagle dog at 0.5 mg/kg, iv; assay type: ADME, organism-based, Canis lupus familiaris; parameters: dose 0.5 mg/kg, route intravenous; details: in vivo
[39] = Volume of distribution in Sprague-Dawley rat at 3.3 mg/kg, iv; assay type: ADME, organism-based; parameters: dose 3.3 mg/kg, route intravenous; details: in vivo, read-out: Vdss
[40] = Cmax in Sprague-Dawley rat at 6.7 mg/kg, po; assay type: ADME, organism-based; parameters: dose 6.7 mg/kg, route oral; details: in vivo
[41] = AUC in Beagle dog at 0.5 mg/kg, iv; assay type: ADME, organism-based, Canis lupus familiaris; parameters: dose 0.5 mg/kg, route intravenous; details: plasma
[42] = Oral bioavailability in Beagle dog at 1 mg/kg, po; assay type: ADME, organism-based, Canis lupus familiaris; details: in vivo

Which pKa [1] does the source give for CCS(=O)(=O)CCN1CCC(CC(=O)NO)(NC(=O)c2ccc(OCc3cc(C)nc4ccccc34)cc2)CC1 here?
The pKa was 6.06.

And the logP [2]?
The logP was 2.48.

What does the source list for Cc1cc(COc2ccc(C(=O)NC3(CC(=O)NO)CCN(C4=NCCS4)CC3)cc2)c2ccccc2n1?
pKa [1]: 7.23; logP [2]: 2.78

Which results are given for Cc1cc(COc2ccc(C(=O)NC3(CC(=O)NO)CCOCC3)cc2)c2ccccc2n1?
half-life [3]: 4.2 h; Cmax [4]: 3.75 µM; bioavailability [5]: 15%; Vd [6]: 0.7 L/kg; Cmax [7]: 4.49 µM; Tmax [8]: 0.4 h; remaining at 0.5 h [9]: 83.8%; half-life [10]: 1.8 h; bioavailability [11]: 79%; clearance [12]: 38.3 mL/min/kg; AUC [13]: 4.86 µM·h; Vd [14]: 2.5 L/kg; clearance [15]: 26.7 mL/min/kg; half-life [16]: 0.3 h; half-life [17]: 4 h; AUC [18]: 1.97 µM·h; Tmax [19]: 0.75 h; AUC [20]: 7.72 µM·h; remaining at 0.5 h [21]: 36.7%; AUC [22]: 2.21 µM·h

Which pKa [1] does the source give for Cc1cc(COc2ccc(C(=O)NC3(CC(=O)NO)CCN(CC(C)(C)C)CC3)cc2)c2ccccc2n1 here?
Its pKa is 7.75.

And the logP [2]?
Its logP is 3.66.

With Cc1cc(COc2ccc(C(=O)NC3(CC(=O)NO)CCNCC3)cc2)c2ccccc2n1 as the compound, how does the half-life [23] read?
The half-life was 2.1 h.

What about the half-life [24] of the same compound?
Its half-life is 2.2 h.

And the remaining at 0.5 h [25]?
The remaining at 0.5 h was 100%.

And the pKa [1]?
The pKa was 8.4.

And the half-life [26]?
The half-life was 1.5 h.

What about the half-life [27] of the same compound?
Its half-life is 2.1 h.

What about the AUC [28] of the same compound?
The AUC was 0.343 µM·h.

And the remaining at 0.5 h [9]?
The remaining at 0.5 h was 92%.

And the Tmax [29]?
The Tmax was 0.3 h.

And the remaining at 0.5 h [30]?
The remaining at 0.5 h was 100%.

What about the Cmax [31] of the same compound?
Its Cmax is 0.126 µM.

What about the Vd [32] of the same compound?
Its Vd is 0.3 L/kg.

And the AUC (Rattus norvegicus [33])?
The AUC was 11.359 µM·h.

What about the logP [2] of the same compound?
Its logP is 2.13.

What about the Tmax [34] of the same compound?
Its Tmax is 0.63 h.

And the AUC (Rattus norvegicus [35])?
Its AUC is 8.358 µM·h.

What about the clearance [36] of the same compound?
The clearance was 10 mL/min/kg.

What about the F (Rattus norvegicus [37]) of the same compound?
The F was 17%.

What about the clearance [38] of the same compound?
The clearance was 5 mL/min/kg.

And the remaining at 0.5 h [21]?
Its remaining at 0.5 h is 100%.

What about the Vd [39] of the same compound?
The Vd was 0.3 L/kg.

And the Cmax [40]?
Its Cmax is 2.48 µM.

What about the AUC [41] of the same compound?
Its AUC is 2.19 µM·h.

What about the bioavailability [42] of the same compound?
The bioavailability was 8%.

Which pKa [1] does the source give for Cc1cc(COc2ccc(C(=O)NC3(CC(=O)NO)CCCCC3)cc2)c2ccccc2n1 here?
The pKa was 10.1.

What about the logP [2] of the same compound?
The logP was 1.62.

Which pKa [1] does the source give for C#CC(C)(C)N1CCC(CC(=O)NO)(NC(=O)c2ccc(OCc3cc(C)nc4ccccc34)cc2)CC1 here?
The pKa was 6.58.

And the logP [2]?
Its logP is 3.43.

Which results are given for Cc1cc(COc2ccc(C(=O)NC3(CC(=O)NO)CCN(CCF)CC3)cc2)c2ccccc2n1?
pKa [1]: 7.2; logP [2]: 2.7

Which results are given for Cc1cc(COc2ccc(C(=O)NC3(CC(=O)NO)CCN(C(C)(C)C)CC3)cc2)c2ccccc2n1?
pKa [1]: 9; logP [2]: 1.95
